Measured values published in patent US20210395239A1 (Hoffmann-La Roche Inc., priority 2018, published 2021).

Molecular target: T1, human TLR7 (Homo sapiens, UniProt Q9NYK1)
T1 construct: host or cells: HEK293 (HEK-Blue hTLR7)
T1 sequence (Q9NYK1 27-1049): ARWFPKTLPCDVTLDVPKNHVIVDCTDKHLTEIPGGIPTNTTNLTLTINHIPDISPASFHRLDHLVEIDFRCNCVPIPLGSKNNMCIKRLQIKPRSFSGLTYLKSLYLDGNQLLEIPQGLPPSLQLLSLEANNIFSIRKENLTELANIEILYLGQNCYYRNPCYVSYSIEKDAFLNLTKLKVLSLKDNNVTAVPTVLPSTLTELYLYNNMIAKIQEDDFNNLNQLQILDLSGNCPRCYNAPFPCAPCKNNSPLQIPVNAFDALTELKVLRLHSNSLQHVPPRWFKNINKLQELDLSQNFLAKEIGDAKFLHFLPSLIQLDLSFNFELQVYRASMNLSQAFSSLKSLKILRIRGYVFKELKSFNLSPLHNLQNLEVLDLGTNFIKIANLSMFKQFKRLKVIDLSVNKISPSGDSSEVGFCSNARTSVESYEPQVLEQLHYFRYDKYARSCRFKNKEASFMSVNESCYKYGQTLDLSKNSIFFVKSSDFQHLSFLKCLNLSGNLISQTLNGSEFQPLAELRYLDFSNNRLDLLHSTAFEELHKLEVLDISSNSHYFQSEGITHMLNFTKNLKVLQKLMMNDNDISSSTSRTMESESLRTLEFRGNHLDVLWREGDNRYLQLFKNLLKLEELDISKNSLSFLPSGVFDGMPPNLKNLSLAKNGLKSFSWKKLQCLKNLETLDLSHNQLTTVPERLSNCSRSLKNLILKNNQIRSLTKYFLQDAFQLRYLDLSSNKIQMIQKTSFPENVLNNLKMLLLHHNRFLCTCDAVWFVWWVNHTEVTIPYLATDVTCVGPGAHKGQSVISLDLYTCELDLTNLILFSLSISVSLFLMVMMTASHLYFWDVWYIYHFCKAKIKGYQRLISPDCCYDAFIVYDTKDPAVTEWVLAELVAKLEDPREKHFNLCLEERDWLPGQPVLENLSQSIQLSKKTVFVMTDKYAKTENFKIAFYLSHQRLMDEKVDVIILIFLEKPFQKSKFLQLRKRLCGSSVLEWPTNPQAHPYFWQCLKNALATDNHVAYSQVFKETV
Assay: HEK293-Blue-hTLR-7 cells assay (SEAP reporter, R848 stimulation)
Type: cell-based
Conditions: HEK293-Blue-hTLR7 cells, R848, 20 hrs; read-out: HEK/hTLR7 IC50
Outline: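 HEK293-Blue-hTLR7 cells (NF-κB/AP-1-driven SEAP reporter) were stimulated with R848 alongside serially diluted compound at 1% final DMSO for 20 h at 37 °C. Supernatant SEAP was then developed with QUANTI-Blue for 2 h at 37 °C and absorbance read at 620–655 nm; antagonism is measured as reduced reporter signal.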

| IC50 [µM] | SMILES |
| --- | --- |
| 0.008 | CO[C@H]1CN(c2nccc(N3CCN(C[C@H]4CN(c5ccc(C#N)c6ncccc56)C[C@@H](C)O4)CC3)n2)C[C@@H]1N [Example 26, 5-[(2S,6R)-2-[[4-[2-trans-(3-amino-4-methoxy-pyrrolidin-1-yl)pyrimidin-4-yl]piperazin-1-yl]methyl]-6-methyl-morpholin-4-yl]quinoline-8-carbonitrile] |
| 0.014 | Cc1cc(N2CCN(C[C@H]3CN(c4ccc(C#N)c5ncccc45)C[C@@H](C)O3)CC2)nc(N2C[C@@H](N)[C@@H](F)C2)n1 [Example 55, 5-[(2S,6R)-2-[[4-[2-[(3R,4S)-3-amino-4-fluoro-pyrrolidin-1-yl]-6-methyl-pyrimidin-4-yl]piperazin-1-yl]methyl]-6-methyl-morpholin-4-yl]quinoline-8-carbonitrile] |
| 0.028 | C[C@@H]1CN(c2ccc(C#N)c3ncccc23)C[C@H](CN2CCN(c3ncc(C#N)c(N4CCNCC4)n3)CC2)O1 [Example 51, 5-[(2S,6R)-2-[[4-(5-cyano-4-piperazin-1-yl-pyrimidin-2-yl)piperazin-1-yl]methyl]-6-methyl-morpholin-4-yl]quinoline-8-carbonitrile] |
| 0.022 | COC1CN(c2ccc(N3CCN(C[C@H]4CN(c5ccc(C#N)c6ncccc56)C[C@@H](C)O4)CC3)cn2)CC1N (stereo partly drawn) [Example 43, 5-[(2S,6R)-2-[[4-[6-(3-amino-4-methoxy-pyrrolidin-1-yl)-3-pyridyl]piperazin-1-yl]methyl]-6-methyl-morpholin-4-yl]quinoline-8-carbonitrile] |
| 0.015 | COC1CN(c2nccc(N3CCN(C[C@H]4CN(c5ccc(C#N)c6ncccc56)C[C@@H](C)O4)CC3)n2)C[C@H]1N (stereo in doubt) [Example 52, 5-[(2S,6R)-2-[[4-[2-[(3R,4R)-3-amino-4-methoxy-pyrrolidin-1-yl]pyrimidin-4-yl]piperazin-1-yl]methyl]-6-methyl-morpholin-4-yl]quinoline-8-carbonitrile] |
| 0.005 | Cc1cc(N2CCN(C[C@H]3CN(c4ccc(C#N)c5nccnc45)C[C@@H](C)O3)CC2)nc(N2CCNCC2)n1 [Example 64, 8-[(2R,6S)-2-methyl-6-[[4-(6-methyl-2-piperazin-1-yl-pyrimidin-4-yl)piperazin-1-yl]methyl]morpholin-4-yl]quinoxaline-5-carbonitrile] |
| 0.009 | Cc1cc(N2CCN(C[C@H]3CN(c4ccc(C#N)c5ncccc45)C[C@@H](C)O3)CC2)nc(N2CC(N)C(F)C2)n1 (stereo in doubt) [Example 54, 5-[(2S,6R)-2-[[4-[2-[(3S,4R)-3-amino-4-fluoro-pyrrolidin-1-yl]-6-methyl-pyrimidin-4-yl]piperazin-1-yl]methyl]-6-methyl-morpholin-4-yl]quinoline-8-carbonitrile] |
| 0.009 | C[C@@H]1CN(c2ccc(C#N)n3ncc(F)c23)C[C@H](CN2CCN(c3ccc(N4CC5(CNCCO5)C4)nc3)CC2)O1 [Example 169, 3-fluoro-4-[(2R,6S)-2-methyl-6-[[4-[6-(5-oxa-2,8-diazaspiro[3.5]nonan-2-yl)-3-pyridyl]piperazin-1-yl]methyl]morpholin-4-yl]pyrazolo[1,5-a]pyridine-7-carbonitrile] |
| 0.065 | C[C@@H]1CN(c2ccc(C#N)c3ncccc23)C[C@H](CN2CCN(c3cccc(N[C@H]4CNC[C@@H]4F)n3)CC2)O1 [Example 35, 5-[(2S,6R)-2-[[4-[6-[[(3S,4S)-4-fluoropyrrolidin-3-yl]amino]-2-pyridyl]piperazin-1-yl]methyl]-6-methyl-morpholin-4-yl]quinoline-8-carbonitrile] |
| 0.026 | C[C@@H]1CN(c2cc(=O)n(C)c3ncccc23)C[C@H](CN2CC(c3ccc(N4C[C@H]5NCCO[C@@H]5C4)cc3)C2)O1 [Example 182, 4-[(2S,6R)-2-[[3-[4-[(4aR,7aR)-3,4,4a,5,7,7a-hexahydro-2H-pyrrolo[3,4-b][1,4]oxazin-6-yl]phenyl]azetidin-1-yl]methyl]-6-methyl-morpholin-4-yl]-1-methyl-1,8-naphthyridin-2-one] |
| 0.018 | C[C@@H]1CN(c2ccc(C#N)c3ncccc23)C[C@H](CN2CCN(c3cccc(C4CNCCO4)c3)CC2)O1 (stereo partly drawn) [Example 62, 5-[(2R,6S)-2-methyl-6-[[4-(3-morpholin-2-ylphenyl)piperazin-1-yl]methyl]-morpholin-4-yl]quinoline-8-carbonitrile] |
| 0.018 | C[C@@H]1CN(c2ccc(C#N)n3ncc(F)c23)C[C@H](CN2CCN(c3ccc(C[C@@H]4CNCCO4)cc3)CC2)O1 [Example 186, 3-fluoro-4-[(2R,6S)-2-methyl-6-[[4-[4-[[(2R)-morpholin-2-yl]methyl]phenyl]piperazin-1-yl]methyl]morpholin-4-yl]pyrazolo[1,5-a]pyridine-7-carbonitrile] |
| 0.054 | Cc1cc(N2CCN(C[C@H]3CN(c4ccc(C#N)c5ncccc45)C[C@@H](C)O3)CC2)nc(N2CC(N)C(F)(F)C2)n1 (stereo partly drawn) [Example 63, 5-[(2S,6R)-2-[[4-[2-(4-amino-3,3-difluoro-pyrrolidin-1-yl)-6-methyl-pyrimidin-4-yl]piperazin-1-yl]methyl]-6-methyl-morpholin-4-yl]quinoline-8-carbonitrile] |
| 0.028 | C[C@@H]1CN(c2ccc(C#N)c3ncccc23)C[C@H](CN2CCN(c3cccc(N4CCC(N)CC4)n3)CC2)O1 [Example 36, 5-[(2S,6R)-2-[[4-[6-(4-amino-1-piperidyl)-2-pyridyl]piperazin-1-yl]methyl]-6-methyl-morpholin-4-yl]quinoline-8-carbonitrile] |
| 0.041 | COC1CN(c2ccc(C3CN(C[C@H]4CN(c5cc(=O)n(C)c6ncccc56)C[C@@H](C)O4)C3)cc2)C[C@H]1N (stereo in doubt) [Example 172, 4-[(2S,6R)-2-[[3-[4-[(3R,4R)-3-amino-4-methoxy-pyrrolidin-1-yl]phenyl]azetidin-1-yl]methyl]-6-methyl-morpholin-4-yl]-1-methyl-1,8-naphthyridin-2-one] |
| 0.01 | C[C@@H]1CN(c2ccc(C#N)n3ncc(F)c23)C[C@H](CN2CCN(c3ccc(N4CC[C@@H](N)[C@H](F)C4)nc3)CC2)O1 [Example 175, 4-[(2S,6R)-2-[[4-[6-[(3R,4R)-4-amino-3-fluoro-1-piperidyl]-3-pyridyl]piperazin-1-yl]methyl]-6-methyl-morpholin-4-yl]-3-fluoro-pyrazolo[1,5-a]pyridine-7-carbonitrile] |
| 0.016 | C[C@@H]1CN(c2ccc(C#N)n3ncc(F)c23)C[C@H](CN2CCN(c3ccc([C@@H]4CNCCO4)cc3)CC2)O1 [Example 177, 3-fluoro-4-[(2R,6S)-2-methyl-6-[[4-[4-[(2R)-morpholin-2-yl]phenyl]piperazin-1-yl]methyl]morpholin-4-yl]pyrazolo[1,5-a]pyridine-7-carbonitrile] |
| 0.051 | COC1CNC[C@H]1Nc1cccc(N2CCN(C[C@H]3CN(c4ccc(C#N)c5ncccc45)C[C@@H](C)O3)CC2)n1 (stereo in doubt) [Example 39, 5-[(2S,6R)-2-[[4-[6-[[(3R,4R)-4-methoxypyrrolidin-3-yl]amino]-2-pyridyl]piperazin-1-yl]methyl]-6-methyl-morpholin-4-yl]quinoline-8-carbonitrile] |
| 0.029 | C[C@@H]1CN(c2cc(=O)n(C)c3ncccc23)C[C@H](CN2CC(c3ccc(N4CC5(CNCCO5)C4)cc3)C2)O1 [Example 173, 1-methyl-4-[(2R,6S)-2-methyl-6-[[3-[4-(5-oxa-2,8-diazaspiro[3.5]nonan-2-yl)phenyl]azetidin-1-yl]methyl]morpholin-4-yl]-1,8-naphthyridin-2-one] |
| 0.038 | C[C@@H]1CN(c2cc(=O)n(C)c3ncccc23)C[C@H](CN2CC(c3ccc(N4CCNCC4)cc3)C2)O1 [Example 171, 1-methyl-4-[(2R,6S)-2-methyl-6-[[3-(4-piperazin-1-ylphenyl)azetidin-1-yl]methyl]morpholin-4-yl]-1,8-naphthyridin-2-one] |
| 0.018 | C[C@@H]1CN(c2ccc(C#N)c3ncccc23)C[C@H](CN2CCN(c3ccc(N4CCNCC4)nc3)CC2)O1 [Example 13, 5-[(2R,6S)-2-methyl-6-[[4-(6-piperazin-1-yl-3-pyridyl)piperazin-1-yl]methyl]morpholin-4-yl]quinoline-8-carbonitrile] |
